Legend:
hippocampal neurons = assay: Gramicidin perforated patch clamp, EGABA in hippocampal neurons; type: cell-based, Sprague Dawley; details: 300 nM
Procedure: Neuronal Cultures. Hippocampal neurons were prepared from Sprague Dawley E18 embryos and plated at 450,000 per dish and maintained at 37° C. in a humidified 5% CO2 incubator for 10-25 days before experimentation (Lee et al., Nat. Neurosci. 14, 736-743 (2011)).
At this developmental stage, GABAAR receptor activation leads to hyperpolarization, a phenomenon critically dependent upon KCC2 (Kontou et al., J Biol Chem, 100364 (2021)).
Neuronal Patch clamp assays. Neuronal cell culture recordings were performed in bath saline at 34° C. For gramicidin perforated-patch experiments, pipettes contained (in mM): 140 KCl and 10 HEPES, pH 7.4 KOH. For whole-cell experiments, pipettes contained (in mM): 115 K-meth-SO^4, 30 KCl, 2 Mg-ATP, 4 Na-ATP, 0.4 Na-GTP, and 10 HEPES, pH 7.4 KOH. Bath saline contained the following (in mM): 140 NaCl, 2.5 KCl, 2.5 CaCl2, 2.5 MgCl2, 10 HEPES, and 11 glucose, pH 7.4 NaOH (Kontou et at, 2021, supra). All compound solutions were applied to cells using a three-barreled 700 μm pipe positioned just above the cell (Warner Instruments). […] All voltages from whole-cell experiments were corrected offline using a calculated liquid junction potential value (13.6 mV) in Clampex (Molecular Devices). For gramicidin perforated-patch experiments, intracellular Cl^− values were back-calculated using measured EGABA values and the Nernst equation: […]

KCC4 = molecular target: T1, KCC4 (Homo sapiens, UniProt Q9Y666); assay: Tl+ assay, HEK-293 cells expressing KCC4; type: cell-based; details: read-out: concentration at which effects on KCC4 were seen (EC50 chart FIG. 1G)
T1 construct: expressed in transfected cells; host or cells: HEK-293
T1 sequence (Q9Y666 1-1083): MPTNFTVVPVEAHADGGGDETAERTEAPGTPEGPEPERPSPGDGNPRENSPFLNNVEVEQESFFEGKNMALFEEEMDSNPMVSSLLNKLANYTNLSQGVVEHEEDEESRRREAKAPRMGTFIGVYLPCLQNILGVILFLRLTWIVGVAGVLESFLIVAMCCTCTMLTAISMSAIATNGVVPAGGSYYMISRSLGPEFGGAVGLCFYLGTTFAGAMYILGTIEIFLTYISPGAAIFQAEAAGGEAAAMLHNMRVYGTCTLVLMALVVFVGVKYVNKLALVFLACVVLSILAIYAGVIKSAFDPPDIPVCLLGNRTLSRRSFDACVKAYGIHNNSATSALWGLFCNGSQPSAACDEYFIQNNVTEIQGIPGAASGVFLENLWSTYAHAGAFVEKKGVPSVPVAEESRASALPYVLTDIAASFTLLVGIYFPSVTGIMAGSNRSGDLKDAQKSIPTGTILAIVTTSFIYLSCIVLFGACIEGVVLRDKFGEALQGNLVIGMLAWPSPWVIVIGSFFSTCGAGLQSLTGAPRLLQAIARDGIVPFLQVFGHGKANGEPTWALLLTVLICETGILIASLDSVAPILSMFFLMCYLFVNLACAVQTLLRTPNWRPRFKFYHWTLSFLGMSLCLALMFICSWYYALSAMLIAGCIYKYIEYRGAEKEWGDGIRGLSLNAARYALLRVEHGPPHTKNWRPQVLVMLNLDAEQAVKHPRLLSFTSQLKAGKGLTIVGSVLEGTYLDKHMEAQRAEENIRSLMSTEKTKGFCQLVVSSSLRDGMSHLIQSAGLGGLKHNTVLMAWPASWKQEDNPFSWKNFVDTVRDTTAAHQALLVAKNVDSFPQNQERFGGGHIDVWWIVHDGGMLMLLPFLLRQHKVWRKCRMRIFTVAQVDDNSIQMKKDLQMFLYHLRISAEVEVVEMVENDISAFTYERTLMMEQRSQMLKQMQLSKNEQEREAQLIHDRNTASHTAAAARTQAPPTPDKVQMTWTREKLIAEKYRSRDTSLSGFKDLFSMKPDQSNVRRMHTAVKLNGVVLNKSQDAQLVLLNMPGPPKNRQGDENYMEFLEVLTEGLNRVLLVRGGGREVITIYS
Procedure: FLIPR TI Flux assay. HEK-293 cells were washed with HBSS, and then incubated with loading buffer containing TI sensitive fluorescent dye (https://www.moleculardevices.com), 20 μM bumetanide 20 μM ouabain and 2.5 mM probenecid for 1 h at room temperature (RT) under control conditions or with drugs in the dark using a FlexStation 3 microplate reader (Molecular Devices) and imaged […] for 30 min. Stimulus buffer was added containing 5 mM K^+/0.5 mM Tl^+ and cells were imaged every 1.5 over a 190 second time course The initial rate Tl^+ uptake (Relative Fluorescence Units (RFU) per second) was determined following addition of the stimulus buffer as outlined previously (Conway et at, 2017, supra) (Lee et at, 2022, supra).
Several studies have shown that the activity and plasma membrane accumulation of KCC2 is potentiated via phosphorylation of S940, a process mediated by the activity of protein kinase C and protein phosphatase 1 (Lee et al., 2011, supra; Lee et al., J Biol Chem 282, 29777-29784 (2007); Moore et al., Proc. Natl. Acad. Sci. U.S.A. 115, 10166-10171 (2018); Moore et al., Trends Neurosci. 40, 555-571 (2017); Silayeva et al., Proc. Natl. Acad. Sci. U.S.A. 112, 3523-3528 (2015)). […] Compared to KCC2, effects on KCC3, KCC4, and NKCC1 were only seen at concentrations more than 35-fold that of KCC2 (>100 μM) (FIG. 1G).

Structure (SMILES): C[C@@H]1CN(c2nc3c(c(Nc4ccc(C5CCCCC5)cc4)n2)COC3)CCO1 [Compound A, (R)—N-(4-cyclohexylphenyl)-2-(2-methylmorpholino)-5,7-dihydrofuro[3,4-d]pyrimidin-4-amine]
- reduction in Cl− (hippocampal neurons; 15 min, from EGABA by Nernst equation): 2.2 ± 0.6 mM
- EGABA at 15 min (hippocampal neurons; from −75±3.1 at 0 min, bumetanide and TTX present): −85.1±4.2 mV
- EC50 (KCC4): > 100 µM

Source: patent US20250281497A1, “FUSED AMINO PYRIMIDINE COMPOUNDS FOR TREATMENT OF SEIZURE DISORDERS” (Ovid Therapeutics Inc., priority 2024, published 2025)
